{"source": "patent US20110130380A1", "about": "“Heteroaryl Kinase Inhibitors” (priority 2009, published 2011)"}
{"molecular_target": "Cdk9/cyclinT1 (Homo sapiens, UniProt P50750)", "sequence (P50750 whole entry)": "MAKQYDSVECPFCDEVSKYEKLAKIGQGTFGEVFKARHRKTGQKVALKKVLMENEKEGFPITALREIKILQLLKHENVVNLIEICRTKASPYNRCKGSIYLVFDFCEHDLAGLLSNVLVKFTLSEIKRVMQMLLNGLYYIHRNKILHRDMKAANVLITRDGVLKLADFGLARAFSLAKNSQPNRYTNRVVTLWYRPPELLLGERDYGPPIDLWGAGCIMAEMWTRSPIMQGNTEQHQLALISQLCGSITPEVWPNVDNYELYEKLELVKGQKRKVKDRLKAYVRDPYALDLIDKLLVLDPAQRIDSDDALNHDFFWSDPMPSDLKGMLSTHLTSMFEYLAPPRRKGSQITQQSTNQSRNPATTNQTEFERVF", "sequence (O60563 whole entry partner)": "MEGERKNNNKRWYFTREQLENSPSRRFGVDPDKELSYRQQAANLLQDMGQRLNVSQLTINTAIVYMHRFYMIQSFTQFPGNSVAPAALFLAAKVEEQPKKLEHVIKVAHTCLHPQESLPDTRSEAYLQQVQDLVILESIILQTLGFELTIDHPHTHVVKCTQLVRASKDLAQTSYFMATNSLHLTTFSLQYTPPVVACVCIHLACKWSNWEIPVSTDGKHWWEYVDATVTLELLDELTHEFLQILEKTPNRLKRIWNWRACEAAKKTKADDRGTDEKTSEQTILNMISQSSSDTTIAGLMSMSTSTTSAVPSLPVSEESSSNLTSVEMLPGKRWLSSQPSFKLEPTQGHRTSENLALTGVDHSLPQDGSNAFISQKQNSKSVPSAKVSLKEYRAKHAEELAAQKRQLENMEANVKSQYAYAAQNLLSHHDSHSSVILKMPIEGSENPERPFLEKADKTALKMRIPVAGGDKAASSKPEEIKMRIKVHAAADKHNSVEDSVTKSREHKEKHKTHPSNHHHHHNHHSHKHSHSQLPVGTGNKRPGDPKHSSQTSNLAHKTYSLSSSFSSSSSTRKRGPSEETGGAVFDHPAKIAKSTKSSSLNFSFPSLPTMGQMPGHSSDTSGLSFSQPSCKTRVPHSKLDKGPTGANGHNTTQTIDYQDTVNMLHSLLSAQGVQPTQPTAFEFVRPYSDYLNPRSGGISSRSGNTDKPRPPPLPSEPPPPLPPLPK", "assay": "Cdk9/cyclinT1 IMAP Protocol (fluorescence polarization kinase assay)", "conditions": "Cdk9_cyclinT1_IC50, Table V; generated using one of the two Cdk9/cyclinT1 assays (IMAP or Alpha Screen), not stated which; ATP 6 uM", "units": {"IC50": "nM"}}
{"smiles": "C[C@@H]1CC[C@@H](C(=O)Nc2cc(-c3cccc(NC[C@@H]4CCOC(C)(C)C4)n3)c(Cl)cn2)CN1", "note": "(mixture of isomers) [Example 225, (3R,6R)-/(3S,6S)-6-Methyl-piperidine-3-carboxylic acid {5′-chloro-6-[((R)-2,2-dimethyl-tetrahydro-pyran-4-ylmethyl)-amino]-[2,4′]bipyridinyl-2′-yl}-amide]", "IC50": 1}
{"smiles": "C[C@@H]1CC[C@@H](C(=O)Nc2cc(-c3cccc(NC[C@@H]4CCOC(C)(C)C4)n3)ccn2)CN1", "note": "(mixture of isomers) [Example 226, (3R,6R)-/(3S,6S)-6-Methyl-piperidine-3-carboxylic acid {6-[((R)-2,2-dimethyl-tetrahydro-pyran-4-ylmethyl)-amino]-[2,4′]bipyridinyl-2′-yl}-amide]", "IC50": 1}
{"smiles": "C[C@@H]1CC[C@@H](C(=O)Nc2cc(-c3cccc(NC[C@H]4CCOC(C)(C)C4)n3)c(Cl)cn2)CN1", "note": "(mixture of isomers) [Example 227, (3R,6R)-/(3S,6S)-6-Methyl-piperidine-3-carboxylic acid {5′-chloro-6-[((S)-2,2-dimethyl-tetrahydro-pyran-4-ylmethyl)-amino]-[2,4′]bipyridinyl-2′-yl}-amide]", "IC50": 1}
{"smiles": "C[C@@H]1CC[C@@H](C(=O)Nc2cc(-c3cccc(NC[C@H]4CCOC(C)(C)C4)n3)ccn2)CN1", "note": "(mixture of isomers) [Example 228, (3R,6R)-/(3S,6S)-6-Methyl-piperidine-3-carboxylic acid {6-[((S)-2,2-dimethyl-tetrahydro-pyran-4-ylmethyl)-amino]-[2,4′]bipyridinyl-2′-yl}-amide]", "IC50": 2}
{"smiles": "N[C@@H]1CCC[C@H](C(=O)Nc2cc(-c3cccc(NCC4CCOCC4)n3)c(Cl)cn2)C1", "note": "(racemic) [Example 59, (1S,3R)-/(1R,3S)-3-Amino-cyclohexanecarboxylic acid {5′-chloro-6-[(tetrahydro-pyran-4-ylmethyl)-amino]-[2,4′]bipyridinyl-2′-yl}-amide]", "IC50": 9}
{"smiles": "C[C@H]1CNC[C@H](C(=O)Nc2cc(-c3cccc(NCC4CCOCC4)n3)c(Cl)cn2)C1", "note": "(racemic) [Example 104, (3R,5R)-/(3S,5S)-5-Methyl-piperidine-3-carboxylic acid {5′-chloro-6-[(tetrahydro-pyran-4-ylmethyl)-amino]-[2,4′]bipyridinyl-2′-yl}-amide]", "IC50": 46}
{"smiles": "C[C@@H]1CNC[C@H](C(=O)Nc2cc(-c3cccc(NCC4CCOCC4)n3)c(Cl)cn2)C1", "note": "(racemic) [Example 125, (3R,5S)-/(3S,5R)-5-Methyl-piperidine-3-carboxylic acid {5′-chloro-6-[(tetrahydro-pyran-4-ylmethyl)-amino]-[2,4′]bipyridinyl-2′-yl}-amide]", "IC50": 9}
{"smiles": "C[C@H]1CC[C@@H](C(=O)Nc2cc(-c3cccc(NCC4CCOCC4)n3)c(Cl)cn2)CN1", "note": "(racemic) [Example 126, (3R,6S)-/(3S,6R)-6-Methyl-piperidine-3-carboxylic acid {5′-chloro-6-[(tetrahydro-pyran-4-ylmethyl)-amino]-[2,4′]bipyridinyl-2′-yl}-amide]", "IC50": 18}
{"smiles": "C[C@@H]1CC[C@@H](C(=O)Nc2cc(-c3cccc(NCC4CCOCC4)n3)c(Cl)cn2)CN1", "note": "(racemic) [Example 127, (3R,6R)-/(3S,6S)-6-methyl-piperidine-3-carboxylic acid {5′-chloro-6-[(tetrahydro-pyran-4-ylmethyl)-amino]-[2,4′]bipyridinyl-2′-yl}-amide]", "IC50": 9}
{"smiles": "O=C(Nc1cc(-c2cccc(NCC3CCOCC3)n2)c(Cl)cn1)[C@H]1CNC[C@@H](C(F)(F)F)C1", "note": "(racemic) [Example 148, (3R,5S)-/(3S,5R)-5-Trifluoromethyl-piperidine-3-carboxylic acid {5′-chloro-6-[(tetrahydro-pyran-4-ylmethyl)-amino]-[2,4′]bipyridinyl-2′-yl}-amide]", "IC50": "< 8"}
{"smiles": "O=C(Nc1cc(-c2cccc(NCC3CCOCC3)n2)c(Cl)cn1)[C@H]1CNC[C@H](C(F)(F)F)C1", "note": "(racemic) [Example 149, (3R,5R)-/(3S,5S)-5-Trifluoromethyl-piperidine-3-carboxylic acid {5′-chloro-6-[(tetrahydro-pyran-4-ylmethyl)-amino]-[2,4′]bipyridinyl-2′-yl}-amide]", "IC50": 31}
{"smiles": "O=C(Nc1cc(-c2cccc(NCC3CCOCC3)n2)c(Cl)cn1)[C@@H]1CC[C@H](C(F)(F)F)NC1", "note": "(racemic) [Example 160, (3R,6R)-/(3S,6S)-6-Trifluoromethyl-piperidine-3-carboxylic acid {5′-chloro-6-[(tetrahydro-pyran-4-ylmethyl)-amino]-[2,4′]bipyridinyl-2′-yl}-amide]", "IC50": 11}
{"smiles": "O=C(Nc1cc(-c2cccc(NCC3CCOCC3)n2)c(Cl)cn1)[C@@H]1CC[C@@H](C(F)(F)F)NC1", "note": "(racemic) [Example 161, (3R,6S)-/(3S,6R)-6-Trifluoromethyl-piperidine-3-carboxylic acid {5′-chloro-6-[(tetrahydro-pyran-4-ylmethyl)-amino]-[2,4′]bipyridinyl-2′-yl}-amide]", "IC50": 9}
{"smiles": "CO[C@@H]1CNC[C@H](C(=O)Nc2cc(-c3cccc(NCC4CCOCC4)n3)c(Cl)cn2)C1", "note": "(racemic) [Example 184, (3R,5S)-/(3S,5R)-5-Methoxy-piperidine-3-carboxylic acid {5′-chloro-6-[(tetrahydro-pyran-4-ylmethyl)-amino]-[2,4′]bipyridinyl-2′-yl}-amide]", "IC50": 11}
{"smiles": "COC[C@@H]1CC[C@H](C(=O)Nc2cc(-c3cccc(NCC4CCOCC4)n3)c(Cl)cn2)CN1", "note": "(racemic) [Example 220, (3S,6S)-/(3R,6R)-6-Methoxymethyl-piperidine-3-carboxylic acid {5′-chloro-6-[(tetrahydro-pyran-4-ylmethyl)-amino]-[2,4′]bipyridinyl-2′-yl}-amide]", "IC50": 14}
{"smiles": "COC[C@@H]1CC[C@@H](C(=O)Nc2cc(-c3cccc(NCC4CCOCC4)n3)c(Cl)cn2)CN1", "note": "(racemic) [Example 221, (3R,6S)-/(3S,6R)-6-Methoxymethyl-piperidine-3-carboxylic acid {5′-chloro-6-[(tetrahydro-pyran-4-ylmethyl)-amino]-[2,4′]bipyridinyl-2′-yl}-amide]", "IC50": 3}
{"smiles": "C[C@@H]1CC[C@@H](C(=O)Nc2cc(-c3cccc(NCC4CCOCC4)n3)ccn2)CN1", "note": "(racemic) [Example 224, (3R,6R)-/(3S,6S)-6-Methyl-piperidine-3-carboxylic acid {6-[(tetrahydro-pyran-4-ylmethyl)-amino]-[2,4′]bipyridinyl-2′-yl}-amide]", "IC50": 2}
{"smiles": "CC[C@@H]1CC[C@@H](C(=O)Nc2cc(-c3cccc(NCC4CCOCC4)n3)c(Cl)cn2)CN1", "note": "(racemic) [Example 229, (3R,6R)-/(3S,6S)-6-Ethyl-piperidine-3-carboxylic acid {5′-chloro-6-[(tetrahydro-pyran-4-ylmethyl)-amino]-[2,4′]bipyridinyl-2′-yl}-amide]", "IC50": 1}
{"smiles": "CC[C@@H]1CC[C@@H](C(=O)Nc2cc(-c3cccc(NCC4CCOCC4)n3)ccn2)CN1", "note": "(racemic) [Example 230, (3R,6R)-/(3S,6S)-6-Ethyl-piperidine-3-carboxylic acid {6-[(tetrahydro-pyran-4-ylmethyl)-amino]-[2,4′]bipyridinyl-2′-yl}-amide]", "IC50": 2}
{"smiles": "CC[C@@H]1CC[C@@H](C(=O)Nc2cc(-c3ccc(F)c(NCC4CCOCC4)n3)c(Cl)cn2)CN1", "note": "(racemic) [Example 250, (3R,6R)-/(3S,6S)-6-Ethyl-piperidine-3-carboxylic acid {5′-chloro-5-fluoro-6-[(tetrahydro-pyran-4-ylmethyl)-amino]-[2,4′]bipyridinyl-2′-yl}-amide]", "IC50": 1}
{"smiles": "CC[C@@H]1CC[C@@H](C(=O)Nc2cc(-c3ccc(F)c(NCC4CCOCC4)n3)ccn2)CN1", "note": "(racemic) [Example 251, (3R,6R)-/(3S,6S)-6-Ethyl-piperidine-3-carboxylic acid {5-fluoro-6-[(tetrahydro-pyran-4-ylmethyl)-amino]-[2,4′]bipyridinyl-2′-yl}-amide]", "IC50": 1}
{"smiles": "CC[C@H]1CC[C@@H](C(=O)Nc2cc(-c3ccc(F)c(NCC4CCOCC4)n3)c(Cl)cn2)CN1", "note": "(racemic) [Example 252, (3R,6S)-/(3S,6R)-6-Ethyl-piperidine-3-carboxylic acid {5′-chloro-5-fluoro-6-[(tetrahydro-pyran-4-ylmethyl)-amino]-[2,4′]bipyridinyl-2′-yl}-amide]", "IC50": 1}
{"smiles": "CCN1CCCC(C(=O)Nc2cc(-c3cccc(NCC4CCOCC4)n3)c(Cl)cn2)C1", "note": "(single isomer, unassigned) [Example 14]", "IC50": 811}
{"smiles": "CCN1CCC[C@@H](C(=O)Nc2cc(-c3cccc(NCC4CCOCC4)n3)c(Cl)cn2)C1", "note": "(single isomer, unassigned) [Example 56]", "IC50": 81}
{"smiles": "O=C(Nc1cc(-c2cccc(NC[C@H]3CCCOC3)n2)c(Cl)cn1)[C@@H]1CCCNC1", "note": "(single isomer, unassigned) [Example 78]", "IC50": "< 8"}
{"smiles": "O=C(Nc1cc(-c2cccc(NC[C@@H]3CCCOC3)n2)c(Cl)cn1)[C@@H]1CCCNC1", "note": "(single isomer, unassigned) [Example 79]", "IC50": "< 8"}
{"smiles": "CC1(C)C[C@H](CNc2cccc(-c3cc(NC(=O)[C@@H]4CCCNC4)ncc3Cl)n2)CCO1", "note": "(single isomer, unassigned) [Example 115]", "IC50": 1}
{"smiles": "CC1(C)C[C@@H](CNc2cccc(-c3cc(NC(=O)[C@@H]4CCCNC4)ncc3Cl)n2)CCO1", "note": "(single isomer, unassigned) [Example 116, (R)-piperidine-3-carboxylic acid {5′-chloro-6-[((S)-2,2-dimethyl-tetrahydro-pyran-4-ylmethyl)-amino]-[2,4′]bipyridinyl-2′-yl}-amide or (R)-piperidine-3-carboxylic acid {5′-chloro-6-[((R)-2,2-dimethyl-tetrahydro-pyran-4-ylmethyl)-amino]-[2,4′]bipyridinyl-2′-yl}-amide]", "IC50": 2}
{"smiles": "O=C(Nc1cc(-c2cccc(NCC3CCOCC3)n2)c(Cl)cn1)C1(F)CCCNC1", "note": "(single isomer, unassigned) [Example 117]", "IC50": 230}
{"smiles": "O=C(Nc1cc(-c2cccc(NCC3CCOCC3)n2)c(Cl)cn1)C1(F)CCCNC1", "note": "(single isomer, unassigned) [Example 118]", "IC50": 214}
